Assay results: patent publication US5750523A, “Pyridazinone derivatives” (Nissan Chemical Industries, Ltd., priority 1994, dated 1998)
Structures can show the parent of a compound that is named as a salt. Where two headings read alike, the source gives them in different places.

Key:
[1] = test system: Rabbit PRP (platelet aggregation); assay: Antiplatelet aggregation effect, rabbit platelet rich plasma (PRP); assay type: cell-based, male Japanese white rabbits; details: 37° C., 2 minutes incubation, Table III
Method: (§1) Blood was collected from the abdominal aortae of male Wister rats (weight: 200 to 300 g) or male Japanese white rabbits (weight: 1.8 to 2.5 kg) into a syringe containing 1/10 volume 3.8% sodium citrate. The blood thus obtained was centrifuged at 200×g for 7 minutes at room temperature to obtain platelet rich plasma (PRP). Furthermore, the residue was centrifuged at 2000×g for 10 minutes to obtain platelet poor plasma (PPP). The measurement was effected by diluting PRP and PPP to 300,000/mm^3. PRP and PPP were put in cuvettes, and the measurement range of transmittance was adjusted to 0% in the case of PRP and to 100% in the case of PPP. Thereafter, a test sample drug dissolved in 100% dimethyl sulfoxide (DMSO) was added to PRP (the final concentration of DMSO: 0.25%). After incubation at 37° C. and 900 rpm for 2 minutes, an aggregating agent was added to measure an aggregation curve. The antiplatelet aggregation effect of the test sample drug was expressed by a concentration, IC50 (μM), at which the aggregation of control sample was 50% inhibited. The aggregating agents ADP and collagen were used at minimum concentrations (ADP: 5 to 10 μM: collagen : 2.5 to 10 μg/ml) which caused maximum aggregation. The measurement of platelet aggregation was carried out by using NBS HEMA TRACER 601.
(§2) Tables II and III show antiplatelet aggregation effects of test compounds evaluated as IC50 values (μM).
As a comparative compound, the following compound disclosed in reference (d) was used. [drawing 20]

[2] = test system: rabbit thoracic aorta ring specimen; assay: Vasodilation effect, relaxation of phenylephrine contraction of rabbit thoracic aorta ring; details: Oryctolagus cuniculus; contraction by phenylephrine 10^-5 M; cumulative administration from 3×10^-9 M; papaverine hydrochloride 10^-4 M = 100%; Table IV
Method: By using a rabbit thoracic aorta ring specimen, the relaxation effect of a test sample drug on contraction by phenylephrine (10^-5 M) was evaluated. A test sample drug was administered cumulatively from a concentration of 3×10^-9 M, after the contraction became stable. The results were expressed on the basis that the relaxation effect of papaverine hydrochloride (10^-4 M) was 100%.
The comparative compound was the same as in Test Example 1.

[3] = test system: Rat PRP (platelet aggregation); assay: Antiplatelet aggregation effect, rat platelet rich plasma (PRP); assay type: cell-based, male Wister rats; details: 37° C., 2 minutes incubation, Table II
Method: as §1, §2

[4] = Oryctolagus cuniculus, Platelet, 2 min, aggregating agent ADP 5 to 10 μM, read-out: Rabbit PRP IC50, ADP
[5] = Oryctolagus cuniculus, Platelet, 2 min, aggregating agent collagen 2.5 to 10 μg/ml, read-out: Rabbit PRP IC50, Collagen
[6] = Rattus norvegicus, Platelet, 2 min, aggregating agent ADP 5 to 10 μM, read-out: Rat PRP IC50, ADP

Compound | IC50 [1, 4] [µM] | IC50 [1, 5] [µM] | EC50 [2] [µM] | IC50 [3, 6] [µM] | also measured
O=C1CCc2cc(OCCCCc3nnnn3C3CCCCC3)ccc2N1 [Cilostazol, reference compound] | 15 | 2.4 |  |  | 
O=c1[nH]nc(OCCCc2ccc(Cl)cc2)c(NCc2cccnc2)c1Br [Comparative Compound, reference compound] | 0.081 | 0.017 | 0.4 |  | 
O=c1[nH]nc(OCCC(O)c2ccc(Cl)cc2)c(NCc2cccnc2)c1Br (centres unmarked) [Compound No. 1, 4-bromo-6-[3-(4-chlorophenyl)-3-hydroxypropyloxy]-5-(3-pyridylylmethylamino)-3(2H)pyridazinone] | 0.05 | 0.01 | 1.3 | 0.23 | IC50 ([3]; aggregating agent collagen 2.5 to 10 μg/ml, read-out: Rat PRP IC50, Collagen): 0.099 µM
COc1ccc(CNc2c(OCCC(O)c3ccc(Cl)cc3)n[nH]c(=O)c2Br)cc1OC (centres unmarked) [Compound No. 2, 4-bromo-6-[3-(4-chlorophenyl)-3-hydroxypropyloxy]-5-(3,4-dimethoxybenzylamino)-3(2H)pyridazinone] | 0.041 | 0.02 |  | 0.072 | IC50 ([3]; Rattus norvegicus, Platelet, 2 min, aggregating agent collagen 2.5 to 10 μg/ml, read-out: Rat PRP IC50, Collagen): 0.19 µM
O=c1[nH]nc(OCCC(O)c2ccc(Cl)cc2)c(NCc2cccnc2)c1Br (centres unmarked) [Compound No. 65, 4-bromo-6-[3-(4-chlorophenyl)-3-hydroxypropyloxy]-5-(3-pyridylylmethylamino)-3(2H)pyridazinone hydrochloride] |  |  |  |  | IC50 ([1]; aggregating agent ADP 5 to 10 μM, hydrochloride, read-out: Rabbit PRP IC50, ADP): 0.053 µM; IC50 ([1]; aggregating agent collagen 2.5 to 10 μg/ml, hydrochloride, read-out: Rabbit PRP IC50, Collagen): 0.019 µM; IC50 ([3]; aggregating agent ADP 5 to 10 μM, hydrochloride, read-out: Rat PRP IC50, ADP): 0.21 µM; IC50 ([3]; aggregating agent collagen 2.5 to 10 μg/ml, hydrochloride, read-out: Rat PRP IC50, Collagen): 0.22 µM
O=c1[nH]nc(OCC[C@@H](O)c2ccc(Cl)cc2)c(NCc2cccnc2)c1Br [Compound No. 93, 4-bromo-6-[(3R)-3-(4-chlorophenyl)-3-hydroxylpropyloxy]-5-(3-pyridylylmethylamino)-3(2H)pyridazinone hydrochloride] | 0.047 | 0.0097 |  |  | 
